The supplement of paper PMC10307832

Experiments:
Test in all cases: relative viability (nuclei count vs DMSO), 5 days (fraction); higher = more cells survive
Adavosertib + Dasatinib = compound: C=CCn1c(=O)c2cnc(Nc3ccc(N4CCN(C)CC4)cc3)nc2n1-c1cccc(C(C)(C)O)n1 [Adavosertib] + Cc1nc(Nc2ncc(C(=O)Nc3c(C)cccc3Cl)s2)cc(N2CCN(CCO)CC2)n1 [Dasatinib] (partner 0.075 µM)
How it was run: (§1)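 Lung cancer cell lines in 1536-well plates were dosed by pin tool the day after seeding, either with one drug alone or with a fixed anchor-drug dose plus five library-drug doses (not always all listed) in √10 steps. After 5 days, cells were fixed and their nuclei stained in one step (final 0.05% Triton X-100, 1% formaldehyde, 1 ug/ml Hoechst), then counted on 4× images. Relative viability is the nuclei count in treated wells divided by that in vehicle wells. Values are medians of duplicate plates.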

Nelarabine + OSI-027 = compound: COc1nc(N)nc2c1ncn2[C@@H]1O[C@H](CO)[C@@H](O)[C@@H]1O [Nelarabine] + COc1cccc2cc(-c3nc([C@H]4CC[C@H](C(=O)O)CC4)n4ncnc(N)c34)[nH]c12 [OSI-027] (partner 0.5 µM)
How it was run: as §1

Nelarabine + Alpelisib = compound: COc1nc(N)nc2c1ncn2[C@@H]1O[C@H](CO)[C@@H](O)[C@@H]1O [Nelarabine] + Cc1nc(NC(=O)N2CCC[C@H]2C(N)=O)sc1-c1ccnc(C(C)(C)C(F)(F)F)c1 [Alpelisib] (partner 2 µM)
How it was run: as §1

Nelarabine + Vorinostat = compound: COc1nc(N)nc2c1ncn2[C@@H]1O[C@H](CO)[C@@H](O)[C@@H]1O [Nelarabine] + O=C(CCCCCCC(=O)Nc1ccccc1)NO [Vorinostat] (partner 1 µM)
How it was run: as §1

Row | Cell Line | relative viability (Adavosertib + Dasatinib; first compound 0.01 µM) | relative viability (Adavosertib + Dasatinib; first compound 0.03162 µM) | relative viability (Adavosertib + Dasatinib; first compound 0.1 µM) | relative viability (Adavosertib + Dasatinib; first compound 0.3162 µM) | relative viability (Nelarabine + OSI-027; first compound 0.01 µM) | relative viability (Nelarabine + OSI-027; first compound 0.03162 µM) | relative viability (Nelarabine + OSI-027; first compound 0.3162 µM) | relative viability (Nelarabine + OSI-027; first compound 1 µM) | relative viability (Nelarabine + Alpelisib; first compound 0.01 µM) | relative viability (Nelarabine + Alpelisib; first compound 0.03162 µM) | relative viability (Nelarabine + Alpelisib; first compound 0.3162 µM) | relative viability (Nelarabine + Alpelisib; first compound 1 µM) | relative viability (Nelarabine + Vorinostat; first compound 0.01 µM) | relative viability (Nelarabine + Vorinostat; first compound 0.03162 µM) | relative viability (Nelarabine + Vorinostat; first compound 0.3162 µM) | relative viability (Nelarabine + Vorinostat; first compound 1 µM) | relative viability (Nelarabine + OSI-027; first compound 0.1 µM) | relative viability (Nelarabine + Alpelisib; first compound 0.1 µM) | relative viability (Nelarabine + Vorinostat; first compound 0.1 µM)
1 | NCI-H3122 | 0.816 | 0.849 | 0.922 | 0.893 | 1.34 | 1.01 | 1.11 | 1.03 | 0.898 | 0.569 | 0.881 | 0.761 | 1.38 | 0.833 | 1.17 | 1.02 | – | – | –
2 | NCI-H838 | 0.291 | 0.326 | 0.31 | 0.285 | 0.463 | 0.377 | 0.426 | 0.45 | 1.29 | 0.769 | 1.11 | 1.02 | 0.861 | 0.79 | 0.755 | 0.73 | 0.324 | 1.07 | 0.759
3 | H3255 | 0.347 | 0.382 | 0.352 | 0.352 | – | 0.653 | 0.585 | 0.456 | 0.859 | 0.897 | 0.687 | 0.75 | 0.904 | 0.786 | 0.961 | 0.8 | 0.637 | 0.644 | 0.777
4 | NCI-H2085 | 0.257 | 0.266 | 0.229 | 0.279 | 0.945 | 0.849 | 0.797 | 0.748 | 1.06 | 0.992 | 1.01 | 1.02 | 0.788 | 0.814 | 0.819 | 0.816 | 0.664 | 0.94 | 0.77
5 | NCI-H1355 | 0.673 | 0.643 | 0.696 | 0.569 | 0.481 | 0.434 | 0.363 | 0.382 | 1.09 | 0.615 | 0.894 | 0.801 | 0.665 | 0.673 | 0.679 | 0.705 | 0.367 | 0.813 | 0.544
6 | SK-MES-1 | 0.334 | 0.392 | 0.27 | 0.193 | 0.698 | 0.579 | 0.683 | 0.611 | 1.01 | 1 | 0.964 | 0.948 | 1.36 | 1.12 | 1.36 | 1.3 | 0.62 | 0.937 | 1.18
7 | NCI-H1755 | 0.406 | 0.424 | 0.447 | 0.384 | 0.647 | 0.642 | 0.835 | 0.781 | 1.13 | 0.879 | 1.15 | 1.08 | 0.954 | 0.742 | 0.861 | 0.873 | 0.699 | 0.984 | 0.682
8 | NCI-H650 | 0.37 | 0.494 | 0.5 | 0.465 | 0.616 | 0.529 | 0.563 | 0.501 | 1.38 | 1.08 | 1.14 | 1.24 | 0.415 | 0.376 | 0.479 | 0.499 | 0.48 | 1 | 0.4
9 | COR-L 105 | 0.285 | 0.308 | 0.331 | 0.246 | 0.781 | 0.82 | 0.616 | 0.715 | 1.15 | 1.11 | 1.3 | 0.985 | 0.805 | 0.887 | 1.12 | 0.726 | 0.531 | 1.03 | 0.952
10 | BEN | 0.294 | 0.295 | 0.297 | 0.302 | 0.328 | 0.293 | 0.296 | 0.301 | 1.53 | 0.95 | 1.06 | 1.08 | 0.662 | 0.575 | 0.609 | 0.618 | 0.541 | 1.1 | 0.592
11 | NCI-H322M | 0.238 | 0.225 | 0.247 | 0.255 | 0.575 | 0.544 | 0.516 | 0.612 | 0.926 | 0.792 | 0.772 | 0.836 | 0.942 | 0.856 | 0.943 | 0.802 | 0.431 | 0.677 | 0.954
12 | HCC-366 | 0.668 | 0.631 | 0.736 | 0.63 | 1.3 | 0.737 | 1.28 | 0.973 | 0.468 | 0.267 | 0.517 | 0.47 | 0.582 | 0.343 | 0.47 | 0.339 | 0.878 | 0.308 | 0.391
13 | NCI-H596 | 0.53 | 0.656 | 0.66 | 0.541 | 0.82 | 0.668 | 0.692 | 0.792 | 0.532 | 0.504 | 0.577 | 0.504 | 0.546 | 0.608 | 0.671 | 0.661 | 0.698 | 0.525 | 0.613
14 | EPLC-272H | 0.312 | 0.339 | 0.363 | 0.205 | 0.28 | 0.248 | 0.311 | 0.233 | 0.986 | 0.932 | 0.926 | 0.808 | 0.313 | 0.411 | 0.387 | 0.385 | 0.269 | 1.03 | 0.459
